# Test results: BindingDB's records for doi:10.1124/jpet.102.046318 (Georgetown University, 2003)
# Experiments:
# [1] = target: Sodium-dependent serotonin transporter (Rattus norvegicus, UniProt P31652)
# [2] = target: Sodium-dependent dopamine transporter (Rattus norvegicus, UniProt P23977)
# [3] = target: Norepinephrine transporter (Rattus norvegicus, UniProt Q9JIA2)
# Sequence of Sodium-dependent dopamine transporter (P23977 whole entry): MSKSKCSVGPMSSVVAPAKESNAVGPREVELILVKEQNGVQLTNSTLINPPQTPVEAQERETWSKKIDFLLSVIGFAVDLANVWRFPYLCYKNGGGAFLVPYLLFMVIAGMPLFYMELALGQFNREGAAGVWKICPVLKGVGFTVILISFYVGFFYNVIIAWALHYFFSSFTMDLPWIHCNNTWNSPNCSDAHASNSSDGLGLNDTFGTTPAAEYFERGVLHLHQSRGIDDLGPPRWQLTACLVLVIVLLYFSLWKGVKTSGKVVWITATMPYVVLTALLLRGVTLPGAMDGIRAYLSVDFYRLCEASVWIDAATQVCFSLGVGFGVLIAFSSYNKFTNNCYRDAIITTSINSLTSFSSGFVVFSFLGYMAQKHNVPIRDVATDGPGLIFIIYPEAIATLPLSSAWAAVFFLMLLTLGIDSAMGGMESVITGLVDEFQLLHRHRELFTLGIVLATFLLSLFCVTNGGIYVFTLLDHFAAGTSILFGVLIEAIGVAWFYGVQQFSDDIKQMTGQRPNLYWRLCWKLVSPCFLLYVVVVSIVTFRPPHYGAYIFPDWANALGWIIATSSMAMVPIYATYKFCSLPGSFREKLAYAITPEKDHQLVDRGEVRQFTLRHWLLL
# Sequence of Sodium-dependent serotonin transporter (P31652 whole entry): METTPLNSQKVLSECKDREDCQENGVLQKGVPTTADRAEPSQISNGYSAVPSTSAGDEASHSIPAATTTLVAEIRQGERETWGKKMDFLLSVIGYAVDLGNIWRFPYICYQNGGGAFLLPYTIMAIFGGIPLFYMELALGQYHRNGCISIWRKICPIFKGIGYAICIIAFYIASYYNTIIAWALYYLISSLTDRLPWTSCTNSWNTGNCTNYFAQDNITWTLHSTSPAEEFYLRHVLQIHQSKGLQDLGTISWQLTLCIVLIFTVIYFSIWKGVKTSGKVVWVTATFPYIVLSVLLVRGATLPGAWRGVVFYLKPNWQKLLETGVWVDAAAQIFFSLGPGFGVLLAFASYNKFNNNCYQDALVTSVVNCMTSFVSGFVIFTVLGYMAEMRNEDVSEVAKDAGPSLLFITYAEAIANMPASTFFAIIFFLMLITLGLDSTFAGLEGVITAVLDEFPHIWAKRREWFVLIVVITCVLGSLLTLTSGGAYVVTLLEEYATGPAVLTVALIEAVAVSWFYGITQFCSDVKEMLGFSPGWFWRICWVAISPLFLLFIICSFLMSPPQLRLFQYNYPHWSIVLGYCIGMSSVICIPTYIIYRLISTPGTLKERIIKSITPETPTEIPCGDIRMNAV
Compound,Ki [1] [nM],Ki [2] [nM],Ki [3] [nM]
CN1CCC(c2ccc(Cl)cc2)[C@H](C(=O)O)C1 (stereo not given in full) [CAS_8268],5900,276,90
"CN1CCC(c2ccc(Cl)cc2)[C@@H](C(=O)O)C1 (stereo partly drawn) [cis-CPCA, -]",,67,98
